In US20210300940A1 (Merck Patent GmbH, priority 2018, published 2021):

How the values were obtained:
[1] = molecular target: T1, TLR8 (Homo sapiens, UniProt Q9NR97); assay: HEK/293 TLR8 Cell Assay; type: cell-based; details: HEK cells, R848 agonist 30 uM final concentration, Steady-Glo readout; read-out: TLR8 potency
T1 construct: expressed in transfected cells; host or cells: HEK/293 reporter cells (NF-kB luciferase)
T1 sequence (Q9NR97 27-1041): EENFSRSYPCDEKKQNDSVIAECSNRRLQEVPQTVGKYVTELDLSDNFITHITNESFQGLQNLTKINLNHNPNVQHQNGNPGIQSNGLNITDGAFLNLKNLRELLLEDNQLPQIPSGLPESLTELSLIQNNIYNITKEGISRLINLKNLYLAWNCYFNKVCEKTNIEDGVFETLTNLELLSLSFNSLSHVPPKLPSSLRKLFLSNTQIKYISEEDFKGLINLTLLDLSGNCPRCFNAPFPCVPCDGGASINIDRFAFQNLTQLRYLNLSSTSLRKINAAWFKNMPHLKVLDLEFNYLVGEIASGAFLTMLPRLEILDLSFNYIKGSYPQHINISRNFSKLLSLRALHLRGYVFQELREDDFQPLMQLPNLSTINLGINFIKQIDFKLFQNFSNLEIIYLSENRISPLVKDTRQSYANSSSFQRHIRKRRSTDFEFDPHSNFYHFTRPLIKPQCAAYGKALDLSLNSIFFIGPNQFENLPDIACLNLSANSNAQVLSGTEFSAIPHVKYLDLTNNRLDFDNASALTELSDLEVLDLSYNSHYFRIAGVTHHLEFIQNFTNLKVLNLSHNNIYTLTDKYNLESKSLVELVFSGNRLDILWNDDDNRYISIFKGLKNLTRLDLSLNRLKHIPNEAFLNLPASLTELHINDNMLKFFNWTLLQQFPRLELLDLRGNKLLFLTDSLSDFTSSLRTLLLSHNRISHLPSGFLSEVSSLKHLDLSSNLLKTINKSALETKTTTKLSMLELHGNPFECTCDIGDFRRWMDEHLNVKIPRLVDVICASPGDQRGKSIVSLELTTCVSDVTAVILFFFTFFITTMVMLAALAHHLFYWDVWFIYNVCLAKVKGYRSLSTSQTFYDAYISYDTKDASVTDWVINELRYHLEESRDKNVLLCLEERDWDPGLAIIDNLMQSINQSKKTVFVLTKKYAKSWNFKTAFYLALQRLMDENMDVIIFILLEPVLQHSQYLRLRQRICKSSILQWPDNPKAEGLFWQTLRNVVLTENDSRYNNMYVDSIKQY
Experimental: (§1) Example 390: HEK/293 TLR8 Cell Assay Into 384 CulturePlates (Corning 3765) was placed 5000 c/w of […] in 30 uL DMEM without Phenol red (gibco #31053-028) and 10% heat inactivated fetal bovine serum, 1% penicillin-streptomycin, and 2 mM L-Glutamine. The cells were incubated for 24 h at 37° C., 10% carbon dioxide and 90% relative humidity. 3 uL of controls, standards, and compounds were dispensed into wells, incubated for 30 min then 3 uL of R848 agonist (30 uM final concentration) was added in 20 mM Hepes. After incubation for 5 hours, they were allowed to stand at room temperature for 15 min. To this was added 10 uL of Steady-Glo substrate reagent and shake assay plate for 5 min at 1500 rpm. The assay plate was allowed to sit for 30 min at room temperature and then the plate was read on EnVision.

[2] = molecular target: T2, TLR7 (Homo sapiens, UniProt Q9NYK1); assay: HEK/293 TLR7 Cell Assay; type: cell-based; details: TLR7/NFKb HEK cells, R848 agonist 10 uM final concentration, Steady-Glo readout; read-out: TLR7 potency
T2 construct: expressed in transfected cells; host or cells: HEK/293 cells carrying TLR7 and an NF-kB luciferase reporter
T2 sequence (Q9NYK1 27-1049): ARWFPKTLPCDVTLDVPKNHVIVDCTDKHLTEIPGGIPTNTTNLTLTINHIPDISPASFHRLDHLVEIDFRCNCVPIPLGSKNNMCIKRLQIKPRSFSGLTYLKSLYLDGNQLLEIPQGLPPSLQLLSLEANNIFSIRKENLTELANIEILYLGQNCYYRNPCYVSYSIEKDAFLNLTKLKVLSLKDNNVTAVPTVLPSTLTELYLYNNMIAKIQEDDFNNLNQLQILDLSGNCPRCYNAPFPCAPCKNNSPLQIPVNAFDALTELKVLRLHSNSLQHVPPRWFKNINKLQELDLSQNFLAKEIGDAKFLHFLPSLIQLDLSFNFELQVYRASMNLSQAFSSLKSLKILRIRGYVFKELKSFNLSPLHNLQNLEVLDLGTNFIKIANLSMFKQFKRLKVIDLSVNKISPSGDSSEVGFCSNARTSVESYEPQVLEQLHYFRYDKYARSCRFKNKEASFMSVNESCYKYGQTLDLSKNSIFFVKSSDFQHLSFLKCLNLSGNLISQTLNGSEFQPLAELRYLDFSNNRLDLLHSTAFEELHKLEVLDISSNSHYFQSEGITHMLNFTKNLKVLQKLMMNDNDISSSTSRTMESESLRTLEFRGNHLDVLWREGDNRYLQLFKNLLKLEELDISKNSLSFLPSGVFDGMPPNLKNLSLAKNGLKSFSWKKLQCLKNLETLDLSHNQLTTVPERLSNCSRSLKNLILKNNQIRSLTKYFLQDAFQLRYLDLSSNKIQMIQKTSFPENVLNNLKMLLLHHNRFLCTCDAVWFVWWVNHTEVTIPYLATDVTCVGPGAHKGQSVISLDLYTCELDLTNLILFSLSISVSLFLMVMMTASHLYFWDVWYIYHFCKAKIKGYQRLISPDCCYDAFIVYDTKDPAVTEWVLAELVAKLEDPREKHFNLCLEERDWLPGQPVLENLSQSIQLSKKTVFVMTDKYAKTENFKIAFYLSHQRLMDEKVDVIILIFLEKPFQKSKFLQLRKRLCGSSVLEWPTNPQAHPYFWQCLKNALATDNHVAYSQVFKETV
Experimental: as §1, with “389:” for “390:”, “TLR7” for “TLR8”, “[…]” for “1%”, “(10” for “(30”

Compound | IC50 [1] [nM] | IC50 [2] [nM]
C[C@H]1C[C@@H](NC(=O)[C@H](O)CO)CN(c2ccc(C#N)c3nccnc23)C1 [Example 160, (R)—N-[(3R,5S)-1-(8-Cyano-quinoxalin-5-yl)-5-methyl-piperidin-3-yl]-2,3-dihydroxy-propionamide] | < 75 | < 75
Cc1ccc(N2C[C@H](NC(=O)CC3CCN(C(C)C)CC3)CC(F)(F)C2)c2cccnc12 [Example 110, N—[(R)-5,5-Difluoro-1-(8-methyl-quinolin-5-yl)-piperidin-3-yl]-2-(1-isopropyl-piperidin-4-yl)-acetamide] | > 150 | < 75
N#Cc1ccc(N2C[C@@H](CN3CC(O)C3)O[C@@H](C(F)(F)F)C2)c2nccnc12 (single isomer, unassigned) [Example 362] | > 150 | < 75
C[C@H]1C[C@@H](NCCCS(N)(=O)=O)CN(c2ccc(C(F)(F)F)c3ncccc23)C1 [Example 39, 3-[(3R,5S)-5-Methyl-1-(8-trifluoromethyl-quinolin-5-yl)-piperidin-3-ylamino]-propane-1-sulfonic acid amide] | < 75 | < 75
Cc1c(F)cc(N2C[C@@H](C)C[C@@H](NC(=O)[C@@H](N)[C@@H](C)O)C2)c2cccnc12 [Example 134, (2S,3R)-2-Amino-N-[(3R,5S)-1-(7-fluoro-8-methyl-quinolin-5-yl)-5-methyl-piperidin-3-yl]-3-hydroxy-butyramide] | 75 to 150 | 75 to 150
Cc1nnc([C@H]2CN(c3ccc(C#N)c4nccnc34)C[C@@H](C)O2)o1 (racemic) [Example 212, 8-[(2R,6R)-2-Methyl-6-(5-methyl-[1,3,4]oxadiazol-2-yl)-morpholin-4-yl]-quinoxaline-5-carbonitrile] | < 75 | > 150
C[C@@H]1CN(c2ccc(C#N)c3nccnc23)C[C@H](CN2CC[C@H](O)C2)O1 [Example 220, 8-[(2S,6R)-2-((S)-3-Hydroxy-pyrrolidin-1-ylmethyl)-6-methyl-morpholin-4-yl]-quinoxaline-5-carbonitrile] | > 150 | < 75
C[C@@H]1CN(c2cnc(C#N)c3ncccc23)C[C@H](CNC(=O)[C@]2(F)CCCNC2)O1 (single isomer, unassigned) [Example 339] | < 75 | > 150

Second part, the molecule after the results:

IC50 [1] [nM] | IC50 [2] [nM] | Compound
< 75 | < 75 | C[C@H]1C[C@@H](NC(=O)[C@@H](N)CC(N)=O)CN(c2ccc(C(F)(F)F)c3ncccc23)C1 [Example 128, (2S)-2-amino-N-[(3R,5S)-5-methyl-1-[8-(trifluoromethyl)quinolin-5-yl]piperidin-3-yl]butanediamide]
< 75 | < 75 | C[C@H]1C[C@@H](NC2CS(=O)(=O)C2)CN(c2ccc(C(F)(F)F)c3ncccc23)C1 [Example 13, (1,1-Dioxo-1lambda6-thietan-3-yl)-[(3R,5S)-5-methyl-1-(8-trifluoromethyl-quinolin-5-yl)-piperidin-3-yl]-amine]
< 75 | < 75 | C[C@H]1C[C@@H](NC(=O)[C@H](C)N2CCN(C)CC2)CN(c2ccc(C(F)(F)F)c3ncccc23)C1 (single isomer, unassigned) [Example 93]
< 75 | < 75 | C[C@H]1C[C@@H](OCCN2CCCCC2)CN(c2ccc(C#N)c3nccnc23)C1 [Example 5, 8-[(3S,5R)-3-methyl-5-[2-(piperidin-1-yl)ethoxy]piperidin-1-yl]quinoxaline-5-carbonitrile]
< 75 | 75 to 150 | C[C@@H](C(=O)N[C@@H]1C[C@H](C(F)(F)F)CN(c2ccc(C#N)c3nccnc23)C1)N1CCN(C)CC1 (single isomer, unassigned) [Example 99]
< 75 | < 75 | C[C@H]1C[C@@H](NCC2(O)CCOCC2)CN(c2ccc(C(F)(F)F)c3nccnc23)C1 [Example 26, 4-{[(3R,5S)-5-Methyl-1-(8-trifluoromethyl-quinoxalin-5-yl)-piperidin-3-ylamino]-methyl}-tetrahydro-pyran-4-ol]
